Test results from patent US20100305214A1, “Use of a Monoterpene to Increase Tissue Repair” (Aisa Therapeutics, priority 2007, published 2010).

Columns and labels:
colon inflammation = experiment: Preventive anti-inflammatory effects in a rat colitis model (TNBS); type: in vivo; conditions: for average lengths of the colons vs group TNBS/Control / microscopic score of the colons: 6 days after induction; for average macroscopic score of the colons (Mean ± ESM): colons removed 6 days after induction, n = 6; for rats average weights vs group TNBS/Control: J6
Experimental: Average macroscopic and microscopic scores of the colons sampled 6 days after the induction of colon inflammation were compared.
Colon inflammation was induced by a unique rectal administration of a 2,4,6-trinitrobenzen-sulfonic acid solution (TNBS, Fluka, France). TNBS was dissolved in 40° alcohol at a concentration of 50 mg/ml. Animals were anaesthetised intraperitoneally by 2 mg/kg of Calmivet (Vetoquinol, Lure, France) and 50 mg/kg of Ketamine (Ketamine 1000, Virbac, Carros, France). 0.4 ml of the TNBS solution was administered rectally and the rats were maintained during at least 30 minutes to avoid the releasing of the TNBS.
Kruskal-Wallis test followed possibly by the Mann-Whitney test was used to compare the different studied variables of the treated groups by comparison with the groups “Control” and “TNBS/Control”. Significativity threshold was settled at P<0.05.

[1] = system: repaired extensor tendon, wound contraction, epithelialization; conditions: in vivo; cited from earlier work
isoprenylation enzymes = conditions: cited from earlier work
[2] = at doses which may have clinical activity; cited from earlier work
skin inflammation = experiment: Mouse chronic skin inflammation model (TPA); type: in vivo; conditions: 10 mg/kg/day topical, 10 days
Experimental: 100 μl of a TPA solution were applied daily on the dorsal surfaces of mice during seven days (from J4 to J10) at a concentration of 0.2 mg/ml.
The daily topical treatment begun 3 days before the induction of skin inflammation (=Ji) and was continued 7 days after the induction of skin inflammation (=J10).
From J4 to J10, the assayed products were applied 30 minutes before the application of TPA on the same skin area.
The mice were anaesthetized by intraperitoneal injection of a mixture of Ketamine (Ketamine 1000, Virbac, Carros, France) and Xylazine (Rompun 2%, Bayer Healthcare, Kiel, Allemagne). (2/3-1/3 vol/vol) at a dosis of 8 ml/kg. Blood (1 ml) was punctured intracardiacally after the last treatment. Blood samples were stored at +4° C. during 20 to 30 minutes then centrifuged at 1500 g for 15 minutes. Serums were removed, freezed at −20° C. and stored at −80° C. until pro-inflammatory cytokines dosage.
Dorsal skin samples were removed, fixed and stored in formaldehyde (Rotr-Histofix 4%, Carl Roth, Karlsruhe, Allemagne) until histopathological analysis.
Kruskal-Wallis test followed possibly by the Mann-Whitney test was used to compare the different studied variables of the treated groups by comparison with the groups “Control” and “TPA+Control”. Significativity threshold was settled at P<0.05.

wound healing process = experiment: Healing after scarification of the skin in hairless Skh-1 mice; conditions: 10 mg/kg/day topical in maize oil, 8 days
Experimental: 6 female mice hairless Skh-1 with an average weight of 20-25 g were used.
Each mouse was submitted to a scarification of the skin on each flank.
The daily topical treatment begun 1 hour before the scarification and was continued 8 days after the scarification.
Daily observations and photographs were performed in order to follow the healing process.

CC(C)Cc1ccc([C@H](C)C(=O)O)cc1 [Ibuprofen, (S)-(+)-Ibuprofen, reference compound]
average macroscopic scores of the colons vs groups TNBS/Control and TNBS/Limonene 100 (colon inflammation; 50 mg/kg daily oral): significantly lower | average lengths of the colons vs group TNBS/Control (colon inflammation; 50 mg/kg daily oral): significantly lower | average macroscopic score of the colons (Mean ± ESM) (colon inflammation; 50 mg/kg daily oral): 4.7 ± 2.7 | rats average weights vs group TNBS/Control (colon inflammation; Ibuprofen 50 mg/kg daily oral): not significantly different | breaking strength of the repaired extensor tendon, wound contraction, and epithelialization [1]: reduce

C=C(C)[C@H]1CC=C(C)CC1 [Limonene, (4R)-1-methyl-4-isopropenylcyclohex-1-ene]
average macroscopic scores of the colons vs groups TNBS/Control and TNBS/Limonene 100 (colon inflammation; 10 mg/kg daily oral): significantly lower | average lengths of the colons vs group TNBS/Control (colon inflammation; 10 mg/kg daily oral): significantly lower | microscopic score of the colons (colon inflammation; 10 mg/kg daily oral): 2 | average macroscopic score of the colons (Mean ± ESM) (colon inflammation; 10 mg/kg daily oral): 6.5 ± 1.3 | average lengths of the colons vs group TNBS/Control (colon inflammation; 100 mg/kg daily oral): significantly lower | microscopic score of the colons (colon inflammation; 100 mg/kg daily oral): 4 | average macroscopic score of the colons (Mean ± ESM) (colon inflammation; 100 mg/kg daily oral): 10.7 ± 2.7 | rats average weights vs group TNBS/Control (colon inflammation; Limonene 10 mg/kg daily oral): not significantly different | rats average weights vs group TNBS/Control (colon inflammation; Limonene 100 mg/kg daily oral): not significantly different | circulating TNF-α level (colon inflammation; at a concentration five times inferior to the concentrations of Ibuprofen): decreased | post-inflammatory tissue repair, compared with ibuprofen (colon inflammation; oral administration, colons sampled 6 days after induction): induced post-inflammatory tissue repair | inhibition of the isoprenylation enzymes (isoprenylation enzymes): weak inhibitors | tolerance in cancer patients [2]: well tolerated

C=C(C)[C@@H]1CC=C(CO)CC1 [Perillyl alcohol, (S)-4-Isopropenyl-1-cyclohexenylmethanol]
average macroscopic score of skin inflammation vs group TPA+Limonene (skin inflammation): significantly lower | average macroscopic scores of skin inflammation vs group TPA+control (skin inflammation): significantly lower | average microscopic scores of skin inflammation vs group TPA+control (skin inflammation): significantly lower | average serum level of IL-1β vs TPA+control group (skin inflammation): tendency to be significantly lower | average serum level of IL-6 vs TPA+control group (skin inflammation): significantly lower | average serum level of TNF-α vs TPA+control group (skin inflammation): significantly lower | histopathological analysis of the skin samples (skin inflammation): skins were little inflammatory; showed non-specific inflammatory skin lesions without epidermis ulceration and with an inflammatory rarely marked | Average serum levels of IL-1β (Mean ± ESM) (skin inflammation; TPA-treated mice): 5.3 ± 1.7 pg/mL | Average serum levels of IL-6 (Mean ± ESM) (skin inflammation; TPA-treated mice): 13.0 ± 3.8 pg/mL | Average serum levels of TNF-α (Mean ± ESM) (skin inflammation; TPA-treated mice): 80.6 ± 24.7 pg/mL | IC50 values, isoprenylation enzymes (isoprenylation enzymes): low mM range | wound healing process in comparison with corn oil alone (wound healing process): much better results | wound healing process in comparison with limonene (wound healing process): better results

C=C(C)[C@@H]1CC=C(C(=O)O)CC1 [perillic acid, reference compound]
IC50 values, isoprenylation enzymes (isoprenylation enzymes): low mM range

S-limonene [reference compound]
inhibition of the isoprenylation enzymes (isoprenylation enzymes): weak inhibitors
